Data on two molecules can be found in article PMC9234961 (Journal of Medicinal Chemistry, 2022).

One test addresses T1, DRD2S (Homo sapiens, UniProt P14416).
T1 construct: expressed in transfected cells
The test is described as follows: SAFETYScan GPCR cAMP, Antagonist. In kind it is cell-based. An excerpt: (§1) Supplement jm1c02175_si_002.xlsx, sheet "SAFETYScan" | column: RC50 (uM); Max Response

Another test has as its target T2, HRH2 (Homo sapiens, UniProt P25021).
T2 construct: expressed in transfected cells
The test is described as follows: SAFETYScan GPCR cAMP, Antagonist. The class given is cell-based.
From the text: as §1

The target of the next test is T3, ADRB2 (Homo sapiens, UniProt P07550).
T3 construct: expressed in transfected cells
T3 sequence (P07550 whole entry): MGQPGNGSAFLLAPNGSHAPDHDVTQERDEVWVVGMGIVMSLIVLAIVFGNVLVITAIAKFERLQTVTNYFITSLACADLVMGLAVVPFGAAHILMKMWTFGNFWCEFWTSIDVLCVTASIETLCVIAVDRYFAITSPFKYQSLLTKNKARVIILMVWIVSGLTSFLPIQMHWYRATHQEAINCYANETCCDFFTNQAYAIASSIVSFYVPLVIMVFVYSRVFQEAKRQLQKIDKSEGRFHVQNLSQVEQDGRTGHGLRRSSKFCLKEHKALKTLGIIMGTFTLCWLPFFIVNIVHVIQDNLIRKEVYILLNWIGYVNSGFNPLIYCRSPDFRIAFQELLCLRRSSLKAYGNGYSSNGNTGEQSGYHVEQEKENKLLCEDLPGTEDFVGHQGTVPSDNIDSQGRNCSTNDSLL
The test is described as follows: SAFETYScan GPCR cAMP, Antagonist. In kind it is cell-based.
From the text: as §1

A further test concerns the target T4, HTR1B (Homo sapiens, UniProt P28222).
T4 construct: expressed in transfected cells
Description: SAFETYScan GPCR cAMP, Antagonist. The class given is cell-based.
From the text: as §1

The target in a further test is T5, ADRA2A (Homo sapiens, UniProt P08913).
T5 construct: expressed in transfected cells
T5 sequence (P08913 1-465): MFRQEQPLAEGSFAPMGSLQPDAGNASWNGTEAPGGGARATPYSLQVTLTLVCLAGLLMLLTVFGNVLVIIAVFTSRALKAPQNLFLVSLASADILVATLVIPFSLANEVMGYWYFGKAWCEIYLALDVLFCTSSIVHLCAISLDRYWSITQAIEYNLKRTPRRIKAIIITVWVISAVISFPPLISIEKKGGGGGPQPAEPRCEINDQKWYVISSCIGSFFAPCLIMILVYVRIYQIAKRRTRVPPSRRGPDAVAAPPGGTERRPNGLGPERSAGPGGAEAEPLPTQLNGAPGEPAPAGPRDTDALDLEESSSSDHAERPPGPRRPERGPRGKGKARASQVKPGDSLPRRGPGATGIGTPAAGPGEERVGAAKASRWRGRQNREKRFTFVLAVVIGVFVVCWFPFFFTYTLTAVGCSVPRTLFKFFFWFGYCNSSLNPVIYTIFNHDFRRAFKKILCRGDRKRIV
The test is described as follows: SAFETYScan GPCR cAMP, Antagonist. The class given is cell-based.
From the text: as §1

Another test has as its target T6, HTR1A (Homo sapiens, UniProt P08908).
T6 construct: expressed in transfected cells
T6 sequence (P08908 1-422): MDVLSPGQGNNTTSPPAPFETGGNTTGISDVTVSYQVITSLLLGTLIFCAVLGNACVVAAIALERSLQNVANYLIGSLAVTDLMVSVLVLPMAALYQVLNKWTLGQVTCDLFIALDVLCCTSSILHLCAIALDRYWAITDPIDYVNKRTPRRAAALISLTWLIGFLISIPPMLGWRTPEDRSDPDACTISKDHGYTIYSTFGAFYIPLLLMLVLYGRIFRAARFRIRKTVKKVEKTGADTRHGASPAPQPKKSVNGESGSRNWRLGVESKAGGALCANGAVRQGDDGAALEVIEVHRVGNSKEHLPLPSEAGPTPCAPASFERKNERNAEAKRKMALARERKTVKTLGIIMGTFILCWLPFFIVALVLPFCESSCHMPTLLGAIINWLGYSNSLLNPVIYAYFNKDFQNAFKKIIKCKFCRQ
The test is described as follows: SAFETYScan GPCR cAMP, Antagonist. The class given is cell-based.
From the text: as §1

The next test deals with OPRD1 (Homo sapiens, UniProt P41143). The test is described as follows: SAFETYScan GPCR cAMP, Antagonist. The class given is cell-based.
Chain of OPRD1 (P41143 whole entry, species assumed): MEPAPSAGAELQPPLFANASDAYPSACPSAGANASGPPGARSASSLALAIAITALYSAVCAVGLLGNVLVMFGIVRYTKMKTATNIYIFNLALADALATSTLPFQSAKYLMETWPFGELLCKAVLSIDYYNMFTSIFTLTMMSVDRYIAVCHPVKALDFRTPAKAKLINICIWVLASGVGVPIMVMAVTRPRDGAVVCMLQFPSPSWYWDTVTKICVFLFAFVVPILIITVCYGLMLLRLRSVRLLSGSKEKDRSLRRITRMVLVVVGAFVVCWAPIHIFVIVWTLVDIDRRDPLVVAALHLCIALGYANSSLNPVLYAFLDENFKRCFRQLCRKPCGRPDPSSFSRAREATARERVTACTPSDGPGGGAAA
From the text: as §1

For a further test, the target named is T7, CNR2 (Homo sapiens, UniProt P34972).
T7 construct: expressed in transfected cells
T7 sequence (P34972 whole entry): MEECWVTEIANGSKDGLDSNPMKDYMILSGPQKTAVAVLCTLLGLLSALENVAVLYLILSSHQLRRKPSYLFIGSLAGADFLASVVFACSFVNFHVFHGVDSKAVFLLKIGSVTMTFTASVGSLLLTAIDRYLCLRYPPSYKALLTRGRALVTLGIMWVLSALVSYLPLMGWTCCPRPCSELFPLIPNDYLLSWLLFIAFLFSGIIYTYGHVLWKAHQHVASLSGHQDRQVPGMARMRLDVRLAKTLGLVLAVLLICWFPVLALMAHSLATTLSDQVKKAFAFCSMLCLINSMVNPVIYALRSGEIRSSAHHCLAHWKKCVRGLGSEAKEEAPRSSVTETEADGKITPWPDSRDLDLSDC
The test is described as follows: SAFETYScan GPCR cAMP, Antagonist. In kind it is cell-based.
From the text: as §1

In a further test the target is T8, DRD1 (Homo sapiens, UniProt P21728).
T8 construct: expressed in transfected cells
T8 sequence (P21728 whole entry): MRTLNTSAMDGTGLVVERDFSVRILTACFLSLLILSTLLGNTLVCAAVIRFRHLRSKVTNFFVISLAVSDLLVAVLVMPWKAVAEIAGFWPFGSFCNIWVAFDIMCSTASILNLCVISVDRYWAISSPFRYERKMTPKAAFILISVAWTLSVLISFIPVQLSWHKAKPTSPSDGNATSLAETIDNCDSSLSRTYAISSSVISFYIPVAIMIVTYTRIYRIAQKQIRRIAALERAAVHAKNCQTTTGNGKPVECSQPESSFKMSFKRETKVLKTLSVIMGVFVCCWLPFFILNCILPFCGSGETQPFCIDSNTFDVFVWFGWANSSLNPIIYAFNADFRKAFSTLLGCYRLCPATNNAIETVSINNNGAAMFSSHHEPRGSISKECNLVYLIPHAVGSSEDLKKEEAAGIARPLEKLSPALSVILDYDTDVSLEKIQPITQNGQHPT
Description: SAFETYScan GPCR cAMP, Antagonist. In kind it is cell-based.
From the text: as §1

The next test relates to Karpas 422. Description: Cell proliferation assay (14 days), Karpas 422.
Test [1] has as its target kinases (468) (Homo sapiens, UniProt Q8TD08). The settings on record: ERK8 (MAPK15); 1000 nM.
Test [2] addresses kinases (468) (Homo sapiens, UniProt P57078). The settings on record: kinase RIPK4 (Entrez RIPK4); compound concentration 1000 nM.
In test [3] the target is kinases (468) (Homo sapiens, UniProt O76039). The conditions noted are these: CDKL5; 1000 nM.
In test [4] the target is kinases (468) (Homo sapiens, UniProt P43403). The conditions noted are these: kinase ZAP70 (Entrez ZAP70); compound concentration 1000 nM.
Chain of kinases (468) (Homo sapiens, UniProt P43403) (P43403 whole entry): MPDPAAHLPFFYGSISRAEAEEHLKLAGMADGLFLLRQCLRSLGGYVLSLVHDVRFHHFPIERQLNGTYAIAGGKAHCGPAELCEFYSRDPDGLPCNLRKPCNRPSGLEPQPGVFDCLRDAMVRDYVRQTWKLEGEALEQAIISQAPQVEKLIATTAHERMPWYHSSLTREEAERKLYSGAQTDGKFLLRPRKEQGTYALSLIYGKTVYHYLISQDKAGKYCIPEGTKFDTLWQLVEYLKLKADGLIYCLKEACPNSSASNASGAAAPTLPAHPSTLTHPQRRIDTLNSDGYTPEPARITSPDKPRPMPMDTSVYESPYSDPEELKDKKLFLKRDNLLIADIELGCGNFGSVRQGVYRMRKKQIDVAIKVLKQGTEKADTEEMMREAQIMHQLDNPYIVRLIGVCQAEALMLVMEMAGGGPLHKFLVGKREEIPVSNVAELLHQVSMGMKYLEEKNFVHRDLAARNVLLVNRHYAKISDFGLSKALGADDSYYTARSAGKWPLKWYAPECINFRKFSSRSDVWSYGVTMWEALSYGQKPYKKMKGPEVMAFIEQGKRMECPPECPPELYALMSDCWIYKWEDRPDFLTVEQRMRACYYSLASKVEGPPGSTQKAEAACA
The target of test [5] is kinases (468) (Homo sapiens, UniProt Q15746). The conditions noted are these: MYLK; 1000 nM.
Test [6] deals with kinases (468) (Homo sapiens, UniProt Q00526). The settings on record: CDK3; 1000 nM.
Test [7] deals with kinases (468) (Homo sapiens, UniProt Q9UIK4). The settings on record: DAPK2; 1000 nM.
Test [8] deals with kinases (468) (Homo sapiens, UniProt Q13188). The conditions noted are these: MST2 (STK3); 1000 nM.
The target of test [9] is kinases (468) (Homo sapiens, UniProt Q14164). The settings on record: IKK-epsilon (IKBKE); 1000 nM.
Chain of kinases (468) (Homo sapiens, UniProt Q14164) (Q14164 whole entry): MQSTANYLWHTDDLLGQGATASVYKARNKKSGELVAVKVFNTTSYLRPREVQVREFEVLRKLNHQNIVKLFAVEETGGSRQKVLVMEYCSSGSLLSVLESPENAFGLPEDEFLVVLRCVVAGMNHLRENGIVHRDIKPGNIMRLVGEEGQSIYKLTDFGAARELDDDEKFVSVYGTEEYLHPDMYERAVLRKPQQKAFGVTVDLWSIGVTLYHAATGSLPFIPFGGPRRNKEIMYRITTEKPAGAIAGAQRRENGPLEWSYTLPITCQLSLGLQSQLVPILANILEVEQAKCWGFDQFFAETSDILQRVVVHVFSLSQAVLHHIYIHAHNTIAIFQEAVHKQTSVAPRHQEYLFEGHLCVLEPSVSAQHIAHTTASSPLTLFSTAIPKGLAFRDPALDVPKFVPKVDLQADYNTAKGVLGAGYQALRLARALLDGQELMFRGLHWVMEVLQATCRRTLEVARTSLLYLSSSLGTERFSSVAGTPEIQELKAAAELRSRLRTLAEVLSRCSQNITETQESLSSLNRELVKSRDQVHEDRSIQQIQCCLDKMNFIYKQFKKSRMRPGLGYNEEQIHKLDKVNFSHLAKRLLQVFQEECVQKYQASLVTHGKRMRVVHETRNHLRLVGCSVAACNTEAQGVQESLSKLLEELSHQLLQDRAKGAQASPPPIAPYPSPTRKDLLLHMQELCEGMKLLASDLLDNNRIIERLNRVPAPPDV
The target in test [10] is kinases (468) (Homo sapiens, UniProt Q9UQM7). The settings on record: CAMK2A; 1000 nM.
The target in test [11] is kinases (468) (Homo sapiens, UniProt P45985). The conditions noted are these: MEK4 (MAP2K4); 1000 nM.
Chain of kinases (468) (Homo sapiens, UniProt P45985) (P45985 whole entry): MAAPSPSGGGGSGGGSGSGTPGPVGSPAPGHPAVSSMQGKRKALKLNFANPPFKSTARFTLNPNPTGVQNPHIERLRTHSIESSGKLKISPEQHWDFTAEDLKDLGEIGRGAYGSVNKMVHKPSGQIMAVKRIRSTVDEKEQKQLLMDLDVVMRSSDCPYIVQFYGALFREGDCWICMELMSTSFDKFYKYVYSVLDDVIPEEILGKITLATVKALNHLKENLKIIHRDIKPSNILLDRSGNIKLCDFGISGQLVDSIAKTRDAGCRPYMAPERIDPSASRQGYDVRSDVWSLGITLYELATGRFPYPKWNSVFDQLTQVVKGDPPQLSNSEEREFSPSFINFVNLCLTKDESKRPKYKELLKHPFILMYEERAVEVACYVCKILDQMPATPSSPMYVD
The target of test [12] is kinases (468) (Homo sapiens, UniProt P10721, A829P). The conditions noted are these: KIT(A829P); 1000 nM.
Test [13] concerns the target kinases (468) (Homo sapiens, UniProt Q9NY57). The conditions noted are these: kinase YANK2 (Entrez STK32B); compound concentration 1000 nM.
Test [14] concerns the target kinases (468) (Homo sapiens, UniProt P68400). The conditions noted are these: CSNK2A1; 1000 nM.
In test [15] the target is kinases (468) (Homo sapiens, UniProt P07949, V804M). The conditions noted are these: kinase RET(V804M) (Entrez RET); compound concentration 1000 nM.

What is called IC50 is the concentration that inhibits the measured activity by half. What is called GI50 is the concentration at which growth is held to half of that of the control.

T4 sequence (P28222 whole entry): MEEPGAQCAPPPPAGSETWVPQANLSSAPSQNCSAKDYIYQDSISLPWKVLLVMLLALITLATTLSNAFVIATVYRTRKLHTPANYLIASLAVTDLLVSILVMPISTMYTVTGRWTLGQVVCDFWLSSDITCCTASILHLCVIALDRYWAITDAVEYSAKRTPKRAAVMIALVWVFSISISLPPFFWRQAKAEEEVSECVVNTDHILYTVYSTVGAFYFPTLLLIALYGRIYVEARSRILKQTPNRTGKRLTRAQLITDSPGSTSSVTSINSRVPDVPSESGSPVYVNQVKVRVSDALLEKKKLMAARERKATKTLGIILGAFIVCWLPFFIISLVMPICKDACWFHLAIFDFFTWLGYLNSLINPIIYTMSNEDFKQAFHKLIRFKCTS
T1 sequence (P14416 1-414 isoform P14416-2): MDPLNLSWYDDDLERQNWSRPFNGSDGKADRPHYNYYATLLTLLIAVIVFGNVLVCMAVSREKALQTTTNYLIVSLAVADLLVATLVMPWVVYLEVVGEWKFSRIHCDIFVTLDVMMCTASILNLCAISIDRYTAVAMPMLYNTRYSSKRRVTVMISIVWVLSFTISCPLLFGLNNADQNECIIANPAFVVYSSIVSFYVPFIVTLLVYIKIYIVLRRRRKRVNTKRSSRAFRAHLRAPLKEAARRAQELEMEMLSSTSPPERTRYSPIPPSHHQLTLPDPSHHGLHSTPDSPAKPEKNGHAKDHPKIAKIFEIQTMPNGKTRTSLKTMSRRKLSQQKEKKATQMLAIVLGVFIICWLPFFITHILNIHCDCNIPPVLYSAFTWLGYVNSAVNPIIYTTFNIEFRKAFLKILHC
T2 sequence (P25021 whole entry): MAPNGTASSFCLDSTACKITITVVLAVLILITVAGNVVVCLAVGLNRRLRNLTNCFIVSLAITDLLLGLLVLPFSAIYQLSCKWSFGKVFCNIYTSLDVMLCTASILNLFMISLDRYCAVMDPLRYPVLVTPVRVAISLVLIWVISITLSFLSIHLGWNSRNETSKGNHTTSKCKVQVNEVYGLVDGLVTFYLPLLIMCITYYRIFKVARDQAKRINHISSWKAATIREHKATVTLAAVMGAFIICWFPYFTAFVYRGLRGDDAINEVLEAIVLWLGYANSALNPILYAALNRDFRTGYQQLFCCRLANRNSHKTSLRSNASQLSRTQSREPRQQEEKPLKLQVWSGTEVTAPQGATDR
Chain of kinases (468) (Homo sapiens, UniProt Q9NY57) (Q9NY57 whole entry): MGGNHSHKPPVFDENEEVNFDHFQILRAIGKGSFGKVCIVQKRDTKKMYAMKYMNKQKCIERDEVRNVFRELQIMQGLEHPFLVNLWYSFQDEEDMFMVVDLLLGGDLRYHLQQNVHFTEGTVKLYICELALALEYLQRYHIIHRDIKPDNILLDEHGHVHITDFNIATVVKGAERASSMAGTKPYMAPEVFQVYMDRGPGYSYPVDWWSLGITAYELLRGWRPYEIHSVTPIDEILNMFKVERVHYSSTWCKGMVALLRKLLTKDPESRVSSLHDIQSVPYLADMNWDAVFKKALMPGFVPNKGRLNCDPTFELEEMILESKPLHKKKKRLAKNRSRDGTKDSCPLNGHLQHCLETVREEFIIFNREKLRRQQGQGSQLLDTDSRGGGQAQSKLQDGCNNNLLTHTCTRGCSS
Description for Karpas 422: Cells were seeded in 96-well culture plates at a density of 2500 cells/well in RPMI-1640 medium (Sigma-
Aldrich) supplemented with 10% FBS (Gibco). Compounds were initially dispensed into 96-well U-bottom
plates using an Echo 550 acoustic dispenser (Labcyte Inc.), then diluted in RPMI-1640 medium and
transferred onto the cells. Cells were treated with 8 compound concentrations in duplicate, ranging from
with compound for 14 days, with medium changes at days 3, 7 and 10 carried out as follows: fresh 96-well
cell culture plates were prepared containing 100 µl medium plus compound at the assay concentrations
(white plates were used on day 10 to optimise luminescence measurement). Assay plates containing cells
were vortexed to mix and cell density in one control well was counted using a Coulter Z2 cell counter
(Beckman Coulter). The volume of medium containing 2500 cells in the control well was calculated and this volume of cells was transferred from every well of the assay plates to the corresponding well of the fresh plates containing compound. After 14 days, CellTiter Glo reagent (Promega) was added to the medium in each well of the assay plate at a ratio of 1:2, mixed on a plate shaker, then incubated at room temperature for 10 minutes. Luminescence was measured using an Envision plate reader (Perkin Elmer) and the relative luminescence at each compound concentration, compared to DMSO alone, was calculated. GI50 were determined using a 4-parameter curve fit in Dotmatics (Bishops Stortford, UK).

With `C[C@H]1C[C@@H](O)CN(c2ncc(Cl)c(Nc3ccc4c(c3)c3c(c(=O)n4C)OCC(F)(F)[C@H](C4CC4)N3)n2)C1` [12a CCT373566, (S)-10-((5-Chloro-2-((3R,5S)-3-hydroxy-5-methylpiperidin-1-yl)pyrimidin-4-yl)amino)-2-cyclopropyl-3,3-difluoro-7-methyl-1,2,3,4-tetrahydro-[1,4]oxazepino[2,3-c]quinolin-6(7H)-one], the Emax stood at 28.7% on DRD2S (read-out: Max Response); 46.3% at HRH2 (read-out: Max Response); 62.3% on ADRB2 (read-out: Max Response); 5.08% at HTR1B (read-out: Max Response); 0% on ADRA2A (read-out: Max Response); 13.8% on HTR1A (read-out: Max Response). Besides, the results for the Emax on OPRD1 (read-out: Max Response), on CNR2 (read-out: Max Response) and on DRD1 (read-out: Max Response) were 0%, 10.7% and 51.9%, respectively. The IC50 was above 10 µM at DRD2S (read-out: RC50 (IC50)); above 10 µM on HRH2 (read-out: RC50 (IC50)); 1.74 µM on ADRB2 (read-out: RC50 (IC50)); above 10 µM on HTR1B (read-out: RC50 (IC50)); above 10 µM on ADRA2A (read-out: RC50 (IC50)); above 10 µM on HTR1A (read-out: RC50 (IC50)). In addition, the results for the IC50 on OPRD1 (read-out: RC50 (IC50)), at CNR2 (read-out: RC50 (IC50)) and at DRD1 (read-out: RC50 (IC50)) were above 10 µM, above 10 µM and 4.89 µM, respectively. In the test on Karpas 422 (14-day proliferation assay), the “Karpas 422 GI50” value is on record as “Very potent growth inhibition”. In the test on Karpas 422 (Homo sapiens, KARPAS-422, 336 h, read-out: Karpas 422 GI50), the GI50 is 0.0014 µM.

As to `C[C@H]1C[C@@H](O)CN(c2ncc(Cl)c(Nc3ccc4c(c3)c3c(c(=O)n4C)OCC(F)(F)[C@H](C4CC4)N3)n2)C1` [CCT373566_9A], the “Percent Control” value on kinases (468) [1] is on record as 95%; on kinases (468) [2] it was 100%; at kinases (468) [3] it was 96%; at kinases (468) [4], 100%; on kinases (468) [5] it was 91%; at kinases (468) [6], 100%. The “Percent Control” value is on record as 99% at kinases (468) [7]; 100% at kinases (468) [8]; 100% at kinases (468) [9]; 79% at kinases (468) [10]; 90% on kinases (468) [11]; 100% on kinases (468) [12]. Moreover, the “Percent Control” value at kinases (468) [13] worked out at 90%; at kinases (468) [14], 91%; at kinases (468) [15] it was 97%.
